The values that follow come from publication PMC4501038 (RSC advances, 2015).

Counter-ions that a name gives are not always drawn. Non-standard residues stand in square brackets, D forms with d. pGlu = O=C1CC[C@@H](C(=O)O)N1

Series [1] has as its system anesthetized mice. Nature of the series: Cardiovascular parameters. As to conditions: noradrenaline, dose not given.
The subject of a further series is Swiss albino mice. Nature of the series: Reversal of pentobarbital-induced sleeping time. The class given is in vivo. Conditions: 10 μmol/kg i.v.
Series [2] concerns scopolamine-treated mice. As to the kind of experiment: Scopolamine-induced memory impairment, Morris water maze. The class given is in vivo. Conditions: for working memory: escape latencies trial 1 vs trial 2: each day for four days, 6c 3.9 mg/kg, scopolamine 1 mg/kg.
Series [3] deals with anesthetized mice. Nature of the series: Cerebral blood flow. The class given is in vivo. As to conditions: 6c 3.9 mg/kg, % change from basal.
Another series concerns mice. As to the kind of experiment: Functional observation battery. Conditions: mouse, in vivo.
Series [4] relates to scopolamine-treated mice. As to the kind of experiment: Scopolamine-induced memory impairment, passive avoidance test. Conditions: rivastigmine (positive control) plus scopolamine. The class given is in vivo.
The next series concerns rodents. As to conditions: cited from earlier work.
The target of another series is TRH-DE. Conditions: read-out: Ki, inhibition of TRH-DE; cited from earlier work.
The next series has as its target central TRH receptors. As to conditions: read-out: Ki, binding to central TRH receptors; cited from earlier work.

The Ki is a dissociation constant, usually derived from enzyme kinetics or from competition with a known ligand.

Take `NC[C@H](O)c1ccc(O)c(O)c1` [Noradrenaline]: in the series on anesthetized mice [1], the “Δ Heart Rate” value is 56.6±9 BPM, the “Δ MAP” value worked out at 42.8±2.2 mm Hg, the “Δ mean Diastolic BP” value was determined as 37.2±3.2 mm Hg and the “Δ mean Systolic BP” value is reported as 54.1±1.7 mm Hg.

For `NC(=O)[C@@H]1CCCN1C(=O)[C@H](Cc1cnc[nH]1)NC(=O)[C@@H]1CCC(=O)N1` [TRH, pGlu-His-ProNH2], the “Sleeping duration (Mean± SEM)” value in the series on Swiss albino mice (pentobarbital 50 mg/kg i.p. 10 min later, mice) was 53.9 ± 3.7 min. For the same compound, the “(%) Reduction in time” value in the series with Swiss albino mice (relative to control, pentobarbital 50 mg/kg i.p.) was found to be 42.5%. Further, the “working memory: escape latencies trial 1 vs trial 2” value (“working memory … vs trial 2” for short) in the series on scopolamine-treated mice [2] is recorded as “significantly decrease in trial 2 compared to trial 1 on all four days”. For the same compound, the “increase in cerebral blood flow” value in the series with anesthetized mice [3] is given as 93.4±2.9%. Also, in the series with mice, the FOB arousal result was “moderate arousal”; the “FOB gait and posture” value is on record as “normal till three hours”; the FOB posture result is “normal posture”; the FOB respiration result was “do not affect normal respiration”. Further, the “FOB spontaneous activity in open field” value in the series on mice is reported as “do not increase spontaneous activity”.

With `CCN(C)C(=O)Oc1cccc([C@H](C)N(C)C)c1` [rivastigmine], the “working memory … vs trial 2” value in the series on scopolamine-treated mice [2] is “significant effect on day 1, 2 and 3”. The “step through latency (retention)” value in the series on scopolamine-treated mice [4] was 235.1 ± 27.6 s.

Take `CN1[C@@H]2C[C@@H](OC(=O)[C@H](CO)c3ccccc3)C[C@H]1[C@@H]1O[C@@H]12` [scopolamine, scopolamine hydrobromide]: the “area under curve of the escape latencies in four-day trial” value with scopolamine-treated mice [2] (dose study, scopolamine (1 mg/kg i.p.) alone) is 337.5 ± 12.2 s. For the same compound, the “working memory … vs trial 2” value with scopolamine-treated mice [2] is reported as “did not show any significant difference between two trials”.

With “[1-methyl-(S)-4,5-dihydroorotyl)]-L-His-L-ProNH2 [TAL]”, in the series on rodents, the “doses producing CNS effects, times lower than TRH” value was “about 100 times” and the “duration of antagonistic action on PB-induced sleep relative to TRH” value was “eight times longer”.

For the compound [pGlu]NP[dY][dW]-NH2, the Ki is 151 nM at TRH-DE and 6.8 nM on central TRH receptors.
